# Source: patent US9695155B2, “Herbicidal substituted pyrimidinyloxy benzene compounds” (E. I. DU PONT DE NEMOURS AND COMPANY, priority 2013, dated 2017)
# Legend:
# lambsquarters = experiment: Test C postemergence; assay type: in vivo, Chenopodium album; conditions: for Lambsquarters plant response rating: 31 g ai/ha
# Summary of the method: (§1)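 Whole-plant greenhouse test with surfactant-containing solvent formulation, applied preemergence to sown loam–sand pots or postemergence to 2–18 cm plants. Scored by eye 13 to 15 days on, 0–100 scale.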
# rice = experiment: Test B flooded paddy test; assay type: in vivo, Oryza sativa; conditions: Flood, 250 g ai/ha, 0 to 100 scale where 0 is no effect and 100 is complete control
# Summary of the method: (§2)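 Flooded to 3 cm at the 2-leaf stage, pots received compound through the paddy water and were kept at that depth under greenhouse conditions. After 13–15 days, effect was rated by eye relative to controls, 0 = none and 100 = complete control.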
# barnyardgrass [1] = experiment: Test B flooded paddy test; assay type: in vivo, Echinochloa crus-galli; conditions: Flood, 250 g ai/ha, 0 to 100 scale where 0 is no effect and 100 is complete control
# Summary of the method: as §2
# galium [2] = experiment: Test C preemergence; assay type: in vivo, Galium aparine
# Summary of the method: as §1
# waterhemp = experiment: Test C postemergence; assay type: in vivo, Amaranthus rudis; conditions: for Waterhemp plant response rating: 31 g ai/ha
# Summary of the method: as §1
# corn [3] = experiment: Test C preemergence; assay type: in vivo, Zea mays
# Summary of the method: as §1
# Italian ryegrass = experiment: Test C postemergence; assay type: in vivo, Lolium multiflorum; conditions: for Ryegrass, Italian plant response rating: 31 g ai/ha
# Summary of the method: as §1
# barnyardgrass [4] = experiment: Test A postemergence; assay type: in vivo, Echinochloa crus-galli
# Summary of the method: (§3)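 Compounds in non-phytotoxic solvent with surfactant applied as soil spray preemergence, or postemergence to plants 2-10 cm at one- to two-leaf stage, in loam/sand. After approximately 10 days in greenhouse, injury rated visually versus untreated controls, 0 (no effect) to 100 (complete control).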
# pigweed = experiment: Test C postemergence; assay type: in vivo, Amaranthus retroflexus; conditions: for Pigweed plant response rating: 31 g ai/ha
# Summary of the method: as §1
# galium [5] = experiment: Test C postemergence; assay type: in vivo, Galium aparine
# Summary of the method: as §1
# corn [6] = experiment: Test C postemergence; assay type: in vivo, Zea mays
# Summary of the method: as §1
# Heteranthera limosa = experiment: Test B flooded paddy test; assay type: in vivo; conditions: Flood, 250 g ai/ha, 0 to 100 scale where 0 is no effect and 100 is complete control
# Summary of the method: as §2
# corn [7] = experiment: Test A postemergence; assay type: in vivo, Zea mays
# Summary of the method: as §3
# [8] = postemergence, visual rating, scale 0 to 100 (0 no effect, 100 complete control), 13 to 15 days
# [9] = 125 g ai/ha, postemergence, visual rating, scale 0 to 100 (0 no effect, 100 complete control)
# [10] = Postemergence, 62 g ai/ha, scale 0 to 100 (0 no effect, 100 complete control), 13 to 15 days
# [11] = 125 g ai/ha, preemergence, scale 0 (no effect) to 100 (complete control)
# [12] = 250 g ai/ha, preemergence, scale 0 (no effect) to 100 (complete control)
# [13] = Preemergence, 62 g ai/ha, scale 0 to 100, 0 no effect, 100 complete control
# [14] = 125 g ai/ha, 0 to 100 scale where 0 is no effect and 100 is complete control
# [15] = 500 g ai/ha, 0 to 100 scale where 0 is no effect and 100 is complete control
# [16] = 31 g ai/ha, postemergence, visual rating, scale 0 to 100 (0 no effect, 100 complete control), 13 to 15 days
structure (smiles),measurement,setting,value
N#Cc1cnn(-c2c(C#N)cccc2Oc2ncc(Cl)cn2)c1 [Compound 200],Lambsquarters plant response rating,lambsquarters; [8],80
same,"Plant response rating, Lambsquarters",lambsquarters; [9],85
same,"Plant response rating (0 to 100), Lambsquarters","lambsquarters; 250 g ai/ha, postemergence",95
same,"Plant response rating, Lambsquarters",lambsquarters; [10],80
same,"Plant response rating, Rice",rice,20
same,"Plant response rating, Barnyardgrass",barnyardgrass [1],20
same,Galium plant response rating,galium [2]; [11],100
same,Galium plant response rating,galium [2]; [12],100
same,"Plant response rating, Galium",galium [2]; [13],100
same,Waterhemp plant response rating,waterhemp; [8],70
same,"Plant response rating, Waterhemp",waterhemp; [9],90
same,"Plant response rating (0 to 100), Waterhemp","waterhemp; 250 g ai/ha, postemergence",95
same,"Plant response rating, Waterhemp",waterhemp; [10],98
same,Corn plant response rating,corn [3]; [11],60
same,Corn plant response rating,corn [3]; [12],75
same,"Plant response rating, Corn",corn [3]; [13],5
same,"Ryegrass, Italian plant response rating",Italian ryegrass; [8],5
same,"Plant response rating, Ryegrass, Italian",Italian ryegrass; [9],5
same,"Plant response rating (0 to 100), Ryegrass, Italian","Italian ryegrass; 250 g ai/ha, postemergence",5
same,"Plant response rating, Ryegrass, Italian",Italian ryegrass; [10],10
same,Barnyardgrass plant response rating,barnyardgrass [4]; [14],80
same,"Plant response rating, Barnyardgrass",barnyardgrass [4]; [15],90
same,Pigweed plant response rating,pigweed; [8],75
same,"Plant response rating, Pigweed",pigweed; [9],95
same,"Plant response rating (0 to 100), Pigweed","pigweed; 250 g ai/ha, postemergence",95
same,"Plant response rating, Pigweed",pigweed; [10],90
same,Galium plant response rating,galium [5]; [16],60
same,"Plant response rating, Galium",galium [5]; [9],85
same,"Plant response rating (0 to 100), Galium","galium [5]; 250 g ai/ha, postemergence",95
same,"Plant response rating, Galium",galium [5]; [10],65
same,Corn plant response rating,corn [6]; [16],5
same,"Plant response rating, Corn",corn [6]; [9],15
same,"Plant response rating (0 to 100), Corn","corn [6]; 250 g ai/ha, postemergence",20
same,"Plant response rating, Corn",corn [6]; [10],10
same,"Plant response rating, Ducksalad",Heteranthera limosa,95
same,Corn plant response rating,corn [7]; [14],50
same,"Plant response rating, Corn",corn [7]; [15],60
"N#Cc1cccc(Oc2ncc(Cl)cn2)c1-n1cc(OCC(F)(F)F)cn1 [Compound 274, 3-[(5-chloro-2-pyrimidinyl)oxy]-2-[4-(2,2,2-trifluoroethoxy)-1H-pyrazol-1-yl]benzonitrile]",Lambsquarters plant response rating,lambsquarters; [8],95
same,pest or weed control at 16 g/ha,"lambsquarters; Chenopodium album, post-emergence, 16 g ai/ha, postemergence, 0 is no effect, 100 is complete control, read-out: Plant response rating (0 to 100), Lambsquarters",85%
same,pest or weed control at 125 g/ha,"lambsquarters; Chenopodium album, post-emergence, 125 g ai/ha, postemergence, visual rating, scale 0 to 100 (0 no effect, 100 complete control), read-out: Plant response rating, Lambsquarters",98%
same,pest or weed control at 62 g/ha,"lambsquarters; Chenopodium album, post-emergence, Postemergence, 62 g ai/ha, scale 0 to 100 (0 no effect, 100 complete control), 13 to 15 days, read-out: Plant response rating, Lambsquarters",95%
same,plant injury at 250 g/ha,"rice; Oryza sativa, read-out: Plant response rating, Rice",60%
same,pest or weed control at 250 g/ha,"barnyardgrass [1]; Echinochloa crus-galli, read-out: Plant response rating, Barnyardgrass",65%
same,pest or weed control at 16 g/ha,"galium [2]; Galium, pre-emergence, 16 g ai/ha, preemergence, scale 0 to 100 (0 no effect, 100 complete control), read-out: Galium plant response rating",90%
same,pest or weed control at 125 g/ha,"galium [2]; Galium, pre-emergence, 125 g ai/ha, preemergence, scale 0 (no effect) to 100 (complete control), read-out: Galium plant response rating",98%
same,pest or weed control at 62 g/ha,"galium [2]; Galium, pre-emergence, Preemergence, 62 g ai/ha, scale 0 to 100, 0 no effect, 100 complete control, read-out: Plant response rating, Galium",98%
same,Waterhemp plant response rating,waterhemp; [8],85
same,pest or weed control at 16 g/ha,"waterhemp; Amaranthus tuberculatus, post-emergence, 16 g ai/ha, postemergence, 0 is no effect, 100 is complete control, read-out: Plant response rating (0 to 100), Waterhemp",70%
same,pest or weed control at 125 g/ha,"waterhemp; Amaranthus tuberculatus, post-emergence, 125 g ai/ha, postemergence, visual rating, scale 0 to 100 (0 no effect, 100 complete control), read-out: Plant response rating, Waterhemp",98%
same,pest or weed control at 62 g/ha,"waterhemp; Amaranthus tuberculatus, post-emergence, Postemergence, 62 g ai/ha, scale 0 to 100 (0 no effect, 100 complete control), 13 to 15 days, read-out: Plant response rating, Waterhemp",95%
same,plant injury at 16 g/ha,"corn [3]; Zea mays, pre-emergence, 16 g ai/ha, preemergence, scale 0 to 100 (0 no effect, 100 complete control), read-out: Corn plant response rating",5%
same,plant injury at 125 g/ha,"corn [3]; Zea mays, pre-emergence, 125 g ai/ha, preemergence, scale 0 (no effect) to 100 (complete control), read-out: Corn plant response rating",80%
same,"Corn plant response rating (crop injury, 0 = no effect, 100 = complete kill) at 62 g/ha","corn [3]; Zea mays, pre-emergence, Preemergence, 62 g ai/ha, scale 0 to 100, 0 no effect, 100 complete control",85%
same,"Ryegrass, Italian plant response rating",Italian ryegrass; [8],5
same,pest or weed control at 16 g/ha,"Italian ryegrass; Lolium multiflorum, post-emergence, 16 g ai/ha, postemergence, 0 is no effect, 100 is complete control, read-out: Plant response rating (0 to 100), Ryegrass, Italian",5%
same,pest or weed control at 125 g/ha,"Italian ryegrass; Lolium multiflorum, post-emergence, 125 g ai/ha, postemergence, visual rating, scale 0 to 100 (0 no effect, 100 complete control), read-out: Plant response rating, Ryegrass, Italian",35%
same,pest or weed control at 62 g/ha,"Italian ryegrass; Lolium multiflorum, post-emergence, Postemergence, 62 g ai/ha, scale 0 to 100 (0 no effect, 100 complete control), 13 to 15 days, read-out: Plant response rating, Ryegrass, Italian",30%
same,pest or weed control at 125 g/ha,"barnyardgrass [4]; Echinochloa crus-galli, post-emergence, 240 h, 125 g ai/ha, 0 to 100 scale, 0 no effect, 100 complete control, read-out: Plant response rating, Barnyardgrass",90%
same,pest or weed control at 500 g/ha,"barnyardgrass [4]; Echinochloa crus-galli, post-emergence, 240 h, 500 g ai/ha, 0 to 100 scale where 0 is no effect and 100 is complete control, read-out: Plant response rating, Barnyardgrass",100%
same,Pigweed plant response rating,pigweed; [8],85
same,pest or weed control at 16 g/ha,"pigweed; Amaranthus retroflexus, post-emergence, 16 g ai/ha, postemergence, 0 is no effect, 100 is complete control, read-out: Plant response rating (0 to 100), Pigweed",95%
same,pest or weed control at 125 g/ha,"pigweed; Amaranthus retroflexus, post-emergence, 125 g ai/ha, postemergence, visual rating, scale 0 to 100 (0 no effect, 100 complete control), read-out: Plant response rating, Pigweed",98%
same,pest or weed control at 62 g/ha,"pigweed; Amaranthus retroflexus, post-emergence, Postemergence, 62 g ai/ha, scale 0 to 100 (0 no effect, 100 complete control), 13 to 15 days, read-out: Plant response rating, Pigweed",90%
same,pest or weed control at 16 g/ha,"galium [5]; Galium, post-emergence, 16 g ai/ha, postemergence, 0 is no effect, 100 is complete control, read-out: Plant response rating (0 to 100), Galium",70%
same,pest or weed control at 31 g/ha,"galium [5]; Galium, post-emergence, 31 g ai/ha, postemergence, visual rating, scale 0 to 100 (0 no effect, 100 complete control), 13 to 15 days, read-out: Galium plant response rating",80%
same,pest or weed control at 125 g/ha,"galium [5]; Galium, post-emergence, 125 g ai/ha, postemergence, visual rating, scale 0 to 100 (0 no effect, 100 complete control), read-out: Plant response rating, Galium",98%
same,pest or weed control at 62 g/ha,"galium [5]; Galium, post-emergence, Postemergence, 62 g ai/ha, scale 0 to 100 (0 no effect, 100 complete control), 13 to 15 days, read-out: Plant response rating, Galium",90%
same,plant injury at 16 g/ha,"corn [6]; Zea mays, post-emergence, 16 g ai/ha, postemergence, 0 is no effect, 100 is complete control, read-out: Plant response rating (0 to 100), Corn",5%
same,plant injury at 31 g/ha,"corn [6]; Zea mays, post-emergence, 31 g ai/ha, postemergence, visual rating, scale 0 to 100 (0 no effect, 100 complete control), 13 to 15 days, read-out: Corn plant response rating",10%
same,"Corn plant response rating (crop injury, 0 = no effect, 100 = complete kill) at 125 g/ha","corn [6]; Zea mays, post-emergence, 125 g ai/ha, postemergence, visual rating, scale 0 to 100 (0 no effect, 100 complete control)",15%
same,"Corn plant response rating (crop injury, 0 = no effect, 100 = complete kill) at 62 g/ha","corn [6]; Zea mays, post-emergence, Postemergence, 62 g ai/ha, scale 0 to 100 (0 no effect, 100 complete control), 13 to 15 days",10%
same,pest or weed control at 250 g/ha,"Heteranthera limosa; Heteranthera limosa, read-out: Plant response rating, Ducksalad",95%
same,"Corn plant response rating (crop injury, 0 = no effect, 100 = complete kill) at 125 g/ha","corn [7]; Zea mays, post-emergence, 240 h, 125 g ai/ha, 0 to 100 scale, 0 no effect, 100 complete control",80%
same,"Corn plant response rating (crop injury, 0 = no effect, 100 = complete kill) at 500 g/ha","corn [7]; Zea mays, post-emergence, 240 h, 500 g ai/ha, 0 to 100 scale where 0 is no effect and 100 is complete control",90%
